Reference: patent publication US7109043B2, “Fluorescent probe for magnesium ion determination” (Japan Science and Technology Corporation, priority 2000, dated 2006)
Entries after “also recorded” stand apart in the source; their conditions may differ. Where two headings read alike, the source gives them in different places.

Experiments:
[1] = known commercial magnesium probes, literature values for comparison; cited from earlier work
[2] = known commercial magnesium probes, literature values for comparison; cited from earlier work; remark: listed apart in the source
[3] = Binding constant to magnesium ion by fluorescence titration (Benesi-Hildebrand plot); conditions: for KMg/KCa (selectivity to magnesium ion): ratio of binding constant to magnesium ion to binding constant to calcium ion; for KMg (binding constant to Mg^2+): probe 10 μM in HEPES 10.0 mM, KCl 120.0 mM, NaCl 20.0 mM, EGTA 2.0 mM, pH 7.20, excitation 448 nm, fluorescence 505 nm
Experimental: (§1) Selectivities to magnesium ion (i.e., the ratio of binding constant to magnesium ion to the binding constant to calcium ion) of KMG-20 synthesized in Example 1 and KMG-27 synthesized in Example 4 were measured. More particularly, this measurement was carried out as follows:
(§2) The fluorescent indicator was dissolved in a solvent (HEPES 10.0 mM, KCl 120.0 mM, NaCl 20.0 mM, EGTA 2.0 mM, pH 7.20) to a concentration of 10 μM. To this solution, a metal salt solution (MgCl2, CaCl2) in the above-described solvent was added to a concentration of 0 to 500 mM, and fluorescence spectrum was measured.
(§3) The conditions of the fluorophotometer (Hitachi F4500) were as follows: excitation wavelength: 448 nm, slit width: excitation side: 2.5 nm, fluorescence side 2.5 nm, photomultiplier voltage: 700V, scanning rate: 240 nm/min.
The fluorescence intensities at the maximum fluorescence wavelength (505 nm) when the concentration of the metal ion was changed were measured, and the binding constants to Mg^2+ and Ca^2+ were calculated by using Benesi-Hildebrand plot method (J. Am. Chem. Soc. 71, 2703 (1949)).
For comparison, the binding constants of known magnesium probes commercially available from Molecular Probes, that is, mag-fura-2 (Proc. Natl. Acad. Sci. USA, 86, 2981 (1989)), mag-indo-1(J. Physiol, 475, 319 (1994)), mag-fura-5 (J. Physiol, 475, 319 (1994)) and Magnesium Green (J. Biol. Chem. 270, 18975 (1995)) are also shown in Table 1.

[4] = Binding constant to calcium ion by fluorescence titration (Benesi-Hildebrand plot); conditions: probe 10 μM in HEPES 10.0 mM, KCl 120.0 mM, NaCl 20.0 mM, EGTA 2.0 mM, pH 7.20; excitation 448 nm, fluorescence 505 nm
Experimental: as §1, §2, §3
The fluorescence intensities at the maximum fluorescence wavelength (505 nm) when the concentration of the metal ion was changed were measured, and the binding constants to Mg^2+ and Ca^2+ were calculated by using Benesi-Hildebrand plot method (J. Am. Chem. Soc. 71, 2703 (1949)). […]

PC-12 cells = assay: Measurement of magnesium ions in cells using fluorescent probe (No. 2), fluorescence microscopy; assay type: cell-based, rat; conditions: for Change in fluorescence intensity after addition of FCCP: 5.0 μM FCCP (raises free magnesium ion level); for Staining / dispersion of the probe in cells: excitation 440 nm, detection 500–530 nm
Experimental: Behavior of magnesium ions in cells were measured using the fluorescent probe synthesized in Example 4.
(§4) Since this fluorescent probe KMG-20 has an acetoxymethyl group, it has a high lipid solubility and is easy to transfer from the culture medium to the cell membrane. In the vicinity of the cell membrane, the acetoxymethyl group is removed by an ester hydrolysis enzyme in the cell and becomes again a water-soluble compound having a carboxyl group, so that it is diffused into the cytoplasm.
A solution of the fluorescent probe in DMSO (1.0 ml) was added to Hanks-HEPES buffer so as to attain a final concentration of 10.0 μM, and the mixture was subjected to ultrasonication. The culture medium in which PC-12 cells (cloned nerve cells isolated from rat adrenal medulla chrome-philic cytoma) had been cultured at 37° C. on a petri dish was replaced with the fluorescent probe solution, and the cells were incubated at 37° C. for 30 minutes. […] The excitation wavelength was 440 nm and the detection wavelength was 500–530 nm. For comparison, the cells before the treatment with the fluorescence probe were also observed with the fluorescence microscope.
(§5) To clarify the behavior of free magnesium ions in the cells, 5.0 μM carbonylcyanoid p-(trifluoromethoxy)phenylhydrazone (FCCP) was added. As a result, the entire cell was brightened. The change in the fluorescence intensity with time after the addition of FCCP was observed. […] It is known that magnesium ion usually binds to an oxygen atom in the phosphoric acid ester moiety of a phosphorylated substrate such as ATP, ADP, phosphorylated saccharide, nucleic acid or the like to neutralize the electric charge thereof, and serves as an acid catalyst, and that enzymes whose corresponding substrates are phosphoric acid ester compounds require magnesium ion as a co-factor. Since FCCP serves as a respiration inhibitor of mitochondria in the cells, the ATP activity in the cells is decreased and so the free magnesium ion level is increased, it is thought that the fluorescent probe formed a complex with magnesium ion, thereby increasing the fluorescence intensity.
(§6) Further, 10 μM acetylcholine was added to the cells so as to compulsively increase the calcium level in the cells.

[5] = test system: bovine vascular endothelial cells; assay: Measurement of magnesium ions in cells using fluorescent probe (No. 1), fluorescence microscopy; assay type: cell-based
Experimental: as §4, with “Magnesium ions in cells were measured using the fluorescent probe KMG-20 synthesized in Example 1. Since” for “Since”, “the” for “this”, “cytoplasm. Upon forming a complex with a magnesium ion, the fluorescence of KMG-20 is increased.” for “cytoplasm.”
A solution of the fluorescent probe KMG-20 in DMSO (1.0 ml) was added to Hanks-HEPES buffer so as to attain a final concentration of 10.0 μM, and the mixture was subjected to ultrasonication. The culture medium in which bovine vascular endothelial cells had been cultured at 37° C. on a petri dish was replaced with the above-described KMG-20 solution, and the cells were incubated at 37° C. for 30 minutes. […] The excitation wavelength was 440 nm and the detection wavelength was 500–530 nm. For comparison, the cells before the treatment with the fluorescence probe were also observed with the fluorescence microscope.
as §5, with “5” for “5.0”, “KMG-20” for “the fluorescent probe”
as §6

[6] = 10 μM acetylcholine (increases calcium level in the cells)
[7] = 10.0 μM probe, 37° C. 30 minutes, fluorescence microscope

Row | SMILES | KMg/KCa (selectivity to magnesium ion) [3] | KMg (binding constant to Mg^2+) [3] | KCa (binding constant to Ca^2+) [4] | KCa (binding constant to Ca^2+) [1] | KMg (binding constant to Mg^2+) [2] | other results
1 | O=C(O)COc1cc(-c2cc3ccc(C(=O)O)cc3[nH]2)ccc1N(CC(=O)O)CC(=O)O [mag-indo-1] | 0.013 | – | – | 28,570 M^−1 | 370.4 M⁻¹ | –
2 | O=C(O)COc1cc2cc(-c3ncc(C(=O)O)o3)oc2cc1N(CC(=O)O)CC(=O)O [mag-fura-2] | 0.013 | – | – | 40,000 M^−1 | 526.3 M⁻¹ | –
3 | O=C([O-])COc1cc(NC(=O)c2ccc3c(c2)C(=O)OC32c3cc(Cl)c([O-])cc3Oc3cc([O-])c(Cl)cc32)ccc1N(CC(=O)[O-])CC(=O)[O-].[K+].[K+].[K+].[K+].[K+] [Magnesium Green] | 0.003 | – | – | 166,660 M^−1 | 500.0 M⁻¹ | –

More lines, main results first:

Row | KMg/KCa (selectivity to magnesium ion) [3] | KMg (binding constant to Mg^2+) [3] | KCa (binding constant to Ca^2+) [4] | SMILES | KCa (binding constant to Ca^2+) [1] | KMg (binding constant to Mg^2+) [2] | other results
4 | 3.09 | 102.0 M⁻¹ | 33.0 M⁻¹ | COC(=O)c1cc2cc3c4c(c2oc1=O)C(C)(C)CCN4CCC3(C)C [KMG-27, methyl-13-aza-10,10,16,16-tetramethyl-3-oxa-4-oxo-tetracyclo[7,7,1,0<2,7>.O<13,17>]heptadeca-1(17),2(7),5,8-tetraene-5-carboxylate] | – | – | Change in fluorescence intensity after addition of FCCP (PC-12 cells): increase in the fluorescent intensity was observed; Change in fluorescence intensity after addition of FCCP (PC-12 cells; listed as Example 4): fluorescence intensity was increased during 1 minute from the addition of FCCP; Change in fluorescence intensity after addition of acetylcholine (PC-12 cells; [6]): increase of the fluorescence intensity was not observed; Staining / dispersion of the probe in cells (PC-12 cells; 10.0 μM probe, 37° C. 30 minutes): uniformly dispersed in the cells; Staining / dispersion of the probe in cells (PC-12 cells; 10.0 μM probe, 37° C. 30 minutes, listed as Example 4): uniformly dispersed and stained the cells; Location of the probe in the cell (PC-12 cells; [7]): located in the vicinity of the nucleus
5 | 3.0 | 100.0 M⁻¹ | 33.3 M⁻¹ | CC(=O)OCOC(=O)c1cc2cc3c4c(c2oc1=O)CCCN4CCC3 [KMG-20, (13-aza-3-oxa-4-oxotetracyclo[7.7.1.0<2,7>.0<13,17>]heptadeca-1(17),2(7),5,8-tetraene-5-ylcarbonyloxy)methyl acetate] | – | – | Change in fluorescence intensity after addition of FCCP ([5]; 5 μM FCCP (raises free magnesium ion level)): fluorescence intensity was increased during 1 minute from the addition of FCCP; Change in fluorescence intensity after addition of acetylcholine [5, 6]: increase of the fluorescence intensity was not observed; Staining / dispersion of the probe in cells ([5]; 10.0 μM probe, 37° C. 30 minutes, excitation 440 nm, detection 500–530 nm): uniformly dispersed and stained the cells; also recorded: uniformly dispersed in the cytoplasm; Location of the probe in the cell [5, 7]: located in the vicinity of the nucleus
